From patent publication US20250304568A1, “PYRIMIDINES FOR DEGRADING BRUTON'S TYROSINE KINASE” (AbbVie Inc., priority 2022, published 2025)

Experiments:
[1] = system: TCL1-driven CLL bearing BTK^C481S mutation; assay: TCL1-driven CLL bearing BTK^C481S mutation in C57BL/6 mice, circulating leukemia burden; assay type: in vivo
Text: Eμ-TCL1 CLL transgenic mice (Crogen Pharmaceuticals LLC) were crossed with […] knock-in mice (AbbVie) to generate Eμ-TCL1 transgenic mice carrying the […] mutation. The leukemic splenocytes from these BTK^C481S Eμ-TCL1 transgenic mice (Passage 1) were transplanted intravenously into C57BL/6 mice, leading to CLL development in the peripheral blood and spleen. When circulating CLL burden (CD5+CD19+ cells as described below) in the recipient mice reached over 90%, their splenocytes (Passage 2) containing high CLL burden were cryopreserved and used for CLL efficacy studies. […]
To determine the absolute/total leukocyte numbers, complete blood counts were determined for each mouse using the Genesis™ veterinary hematology analyzer (Oxford Science Inc.).
Cells isolated from murine peripheral blood mononuclear cells (PMBCs) were collected to determine antigen expression. […] Cells were gated on CD45+, and thereafter the percentage of cells that were CD5+CD19+ from that subset was calculated. […]
Whole blood was collected weekly post tumor implantation via submandibular cheek bleeding. Circulating leukemic burden was calculated by multiplying absolute/total leukocyte count with the percentage of the leukocytes have the immunophenotype CD19^+CD5^+. […]

[2] = molecular target: Human BTK enzyme, wild-type (Homo sapiens (Human), UniProt Q06187); assay: BTK screening: Btk kinase activity, electrophoretic mobility shift assay (MSA); assay type: biochemical; details: 50 μM ATP, 0.5 nM BTK enzyme, 15 minutes pre-incubation
Method: Btk kinase activity was measured in vitro using an electrophoretic mobility shift assay (MSA). The ability of Btk to phosphorylate a fluorescent peptide substrate (FAM-GEEPLYWSFPAKKK-NH2) was measured. The kinase reactions were assembled in a total volume of 25 μL per well in 384 well plates. The following was added to each well: compound buffer (or control); enzyme buffer; and substrate buffer, as further described below. […]
The terminated reactions were analyzed using a 12 channel LABCHIP® 3000 microfluidic detection instrument (available from Caliper Life Sciences, Waltham, MA). […] As substrate and product peptides were separated, two peaks of fluorescence were observed. Change in the relative fluorescence intensity of the substrate and product peaks was the parameter measured, reflecting enzyme activity. […] Capillary electrophoregrams (RDA acquisition files) were analyzed using HTS Well Analyzer software (available from Caliper Life Sciences, Waltham, MA).
Activity in each sample was determined as the product to sum ratio (PSR): P/(S+P), where P was the peak height of the product peptide and S was the peak height of the substrate peptide. For each compound, enzyme activity was measured at various concentrations (12 concentrations of compound spaced by 3× dilution intervals). […]

[3] = molecular target: His-tagged Cereblon/DDB1 complex (Homo sapiens (Human), UniProt Q96SW2); assay: Cereblon binding assay (AlphaLISA Human Cereblon Binding Kit, competition); details: 10 μM top dose, biotinylated ligand competition; read-out: CRBN IC50
Method: Cereblon binding was measured in vitro using an AlphaLISA® Human Cereblon Binding Kit (PerkinElmer, Waltham, MA) according to the manufacturer's protocol (“Alpha” refers to Amplified Luminescent Proximity Homogeneous Assay). In this assay, donor beads and acceptor beads come into proximity through ligand binding to CRBN protein. Excitation of the donor beads provokes the release of singlet oxygen that triggers a cascade of energy transfer reactions to the acceptor beads, resulting in a sharp peak in light emission at 615 nm.
Specifically, nickel chelate acceptor beads (PerkinElmer AL108M) were used to capture a 6×HIS-tagged CRBN protein, and streptavidin-coated donor beads (PerkinElmer 6760002) were used to capture 50 nM biotinylated ligand. […]
Detection: 10 μL detection reagents were added in low light conditions containing nickel chelate acceptor beads and streptavidin donor beads (Perkin Elmer 6760002), resulting in a final concentration 20 μg/ml. Plates were incubated 1 hour and read on a PerkinElmer™ Envision™ plate reader (680 nm excitation and […] emission settings). The IC50 of each compound was determined by calculating percent inhibition from no drug and no protein controls, and the Ki of each compound was calculated using the Cheng-Prusoff transformation. From the Ki, the ICs50 values were determined. […]

Compound	CLL burden control (no increase from the initial tumor burden) ([1]; Dosage 3 and Dosage 4, once daily (QD) for 19 days)	circulating leukemia burden (CD19+CD5+ CLL cells per μL) ([1]; once daily (QD) for 19 days, Dosage 1 to 4, dose-dependent manner, FIG. 1)	IC50 [2]	IC50 [3]
Cc1cc(-c2cc(Nc3ccc(N4CCN(CCc5ccc(N6CCC(=O)NC6=O)cc5)C[C@@H]4C)cn3)ncn2)ccc1[C@@H](C)NC(=O)c1nc(C(C)(C)C)no1 [Example 1, 3-tert-butyl-N-[(1R)-1-{4-[6-({5-[(2S)-4-{2-[4-(2,4-dioxo-1,3-diazinan-1-yl)phenyl]ethyl}-2-methylpiperazin-1-yl]pyridin-2-yl}amino)pyrimidin-4-yl]-2-methylphenyl}ethyl]-1,2,4-oxadiazole-5-carboxamide]	Complete CLL burden control	controlled circulating leukemia burden		
Cc1c([C@@H](C)NC(=O)c2nc(C(C)(C)C)no2)ccc(-c2cc(Nc3ccc(N4CCN(CCc5ccc(N6CCC(=O)NC6=O)cc5)C[C@@H]4C)cn3)ncn2)c1F [Example 10, 3-tert-butyl-N-[(1R)-1-{4-[6-({5-[(2S)-4-{2-[4-(2,4-dioxo-1,3-diazinan-1-yl)phenyl]ethyl}-2-methylpiperazin-1-yl]pyridin-2-yl}amino)pyrimidin-4-yl]-3-fluoro-2-methylphenyl}ethyl]-1,2,4-oxadiazole-5-carboxamide]			0.106 nM	6310 nM
Cc1c([C@@H](C)NC(=O)c2nc(C(C)(C)C)no2)ccc(-c2cc(Nc3ccc(N4CCN(CCc5ccc(N6CCC(=O)NC6=O)cc5)CC4)cn3)ncn2)c1F [Example 11, 3-tert-butyl-N-{(1R)-1-[4-(6-{[5-(4-{2-[4-(2,4-dioxo-1,3-diazinan-1-yl)phenyl]ethyl}piperazin-1-yl)pyridin-2-yl]amino}pyrimidin-4-yl)-3-fluoro-2-methylphenyl]ethyl}-1,2,4-oxadiazole-5-carboxamide]			0.0973 nM	2150 nM
